{
  "source": "PubChem BioAssay AID1259411",
  "about": "(Chemical Carcinogenesis Research Information System (CCRIS), 2018)",
  "test_system": "rodent carcinogenicity bioassays, tumor incidence",
  "experiment": "CCRIS carcinogenicity studies",
  "settings": "Dose: 0, Dose: 0",
  "how_it_was_run": "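Archive of carcinogenicity, mutagenicity, tumor promotion and tumor inhibition results drawn from journals, NCI reports and other sources, expert-reviewed; covers 1985-2011 and is no longer updated.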",
  "note": "Activity calls are given as the source filed them. No rule for the calls is given here.",
  "data": [
    {"compound": "Nc1ccccc1C(=O)OC/C=C/c1ccccc1", "values": [
      {"measurement": "carcinogen call", "setting": "Species: MOUSE, Strain/Sex: B6C3F1/FEMALE, Route: ORAL, 15000, 30000 PPM IN DIET FOR 103 WK (STUDY DURATION: 105-107 WK), 15000, 30000 PPM IN DIET FOR 103 WK (STUDY DURATION: 105-107 WK), Tumor Site: Type of Lesion: LIVER: HEPATOCELLULAR ADENOMA OR CARCINOMA", "value": "active; positive"},
      {"measurement": "carcinogen call", "setting": "Species: MOUSE, Strain/Sex: B6C3F1/MALE, Route: ORAL, 15000, 30000 PPM IN DIET FOR 103 WK (STUDY DURATION: 105-107), 15000, 30000 PPM IN DIET FOR 103 WK (STUDY DURATION: 105-107), Tumor Site: Type of Lesion: LIVER: HEPATOCELLULAR ADENOMA OR CARCINOMA", "value": "active; positive"},
      {"measurement": "carcinogen call", "setting": "Species: RAT, Strain/Sex: F344/FEMALE, Route: ORAL, 15000, 30000 PPM IN DIET FOR 103 WK (STUDY DURATION: 105-107 WK), 15000, 30000 PPM IN DIET FOR 103 WK (STUDY DURATION: 105-107 WK)", "value": "inactive; negative"},
      {"measurement": "carcinogen call", "setting": "Species: RAT, Strain/Sex: F344/MALE, Route: ORAL, 15000, 30000 PPM IN DIET FOR 103 WK (STUDY DURATION: 105-107), 15000, 30000 PPM IN DIET FOR 103 WK (STUDY DURATION: 105-107), Tumor Site: Type of Lesion: PANCREAS: ACINAR CELL ADENOMA OR CARCINOMA, KIDNEY (CORTEX): ADENOMA OR ADENOCARCINOMA (NOS)", "value": "active; positive"}
    ]},
    {"compound": "C=CCOC(Cn1ccnc1)c1ccc(Cl)cc1Cl", "note": "(centres undefined)", "values": [
      {"measurement": "carcinogen call", "setting": "Species: Mouse, Strain/Sex: Swiss/Female (50/Group), Route: Oral, 50, 200, 600 ppm 93% imazalil in diet in 50:50 Aerosil:corn starch for 2 yr, study duration 2 yr, 50, 200, 600 ppm 93% imazalil in diet in 50:50 Aerosil:corn starch for 2 yr, study duration 2 yr, Tumor Site: Type of Lesion: Liver: hepatocytic neoplasms", "value": "active; positive"},
      {"measurement": "carcinogen call", "setting": "Species: Mouse, Strain/Sex: Swiss/Male (50/Group), Route: Oral, 50, 200, 600 ppm 93% imazalil in diet in 50:50 Aerosil:corn starch for 2 yr, study duration 2 yr, 50, 200, 600 ppm 93% imazalil in diet in 50:50 Aerosil:corn starch for 2 yr, study duration 2 yr, Tumor Site: Type of Lesion: Liver: hepatocytic neoplasms", "value": "active; positive"},
      {"measurement": "carcinogen call", "setting": "Species: Rat, Strain/Sex: Cpb:WU/Female (20/Group), Route: Oral, 25, 100, 400 ppm 98.1% imazalil in diet for 18 mo, study duration 18 mo, 25, 100, 400 ppm 98.1% imazalil in diet for 18 mo, study duration 18 mo", "value": "inactive; negative"},
      {"measurement": "carcinogen call", "setting": "Species: Rat, Strain/Sex: Cpb:WU/Male (20/Group), Route: Oral, 25, 100, 400 ppm 98.1% imazalil in diet for 18 mo, study duration 18 mo, 25, 100, 400 ppm 98.1% imazalil in diet for 18 mo, study duration 18 mo", "value": "inactive; negative"}
    ]},
    {"compound": "C=CCN=C=S", "values": [
      {"measurement": "carcinogen call", "setting": "Species: MOUSE, Strain/Sex: B6C3F1/FEMALE, Route: GAVAGE, 12, 25 MG/KG IN CORN OIL FOR 103 WK (STUDY DURATION: 103 WK), 12, 25 MG/KG IN CORN OIL FOR 103 WK (STUDY DURATION: 103 WK)", "value": "inactive; negative"},
      {"measurement": "carcinogen call", "setting": "Species: MOUSE, Strain/Sex: B6C3F1/MALE, Route: GAVAGE, 12, 25 MG/KG IN CORN OIL FOR 103 WK (STUDY DURATION: 103 WK), 12, 25 MG/KG IN CORN OIL FOR 103 WK (STUDY DURATION: 103 WK)", "value": "inactive; negative"},
      {"measurement": "carcinogen call", "setting": "Species: RAT, Strain/Sex: F344/FEMALE, Route: GAVAGE, 12, 25 MG/KG IN CORN OIL FOR 103 WK (STUDY DURATION: 103 WK), 12, 25 MG/KG IN CORN OIL FOR 103 WK (STUDY DURATION: 103 WK), Tumor Site: Type of Lesion: INTEGUMENTARY SYSTEM (SUBCUTANEOUS TISSUE): FIBROSARCOMA", "value": "equivocal"},
      {"measurement": "carcinogen call", "setting": "Species: RAT, Strain/Sex: F344/MALE, Route: GAVAGE, 12, 25 MG/KG IN CORN OIL FOR 103 WK (STUDY DURATION: 103 WK), 12, 25 MG/KG IN CORN OIL FOR 103 WK (STUDY DURATION: 103 WK), Tumor Site: Type of Lesion: URINARY BLADDER: TRANSITIONAL CELL PAPILLOMA", "value": "active; positive"}
    ]},
    {"compound": "CCCCCC(O)/C=C/C=O", "note": "(centres undefined)", "values": [
      {"measurement": "carcinogen call", "setting": "Species: MOUSE, Strain/Sex: B6C3F1/FEMALE, Route: INTRAPERITONEAL, 750 NMOL TOTAL DOSE, 1/3 AND 2/3 OF THE TOTAL DOSE ADMINISTERED AT 8 AND 15 DAYS OF AGE RESPECTIVELY, ANIMALS TERMINA", "value": "inactive; negative"},
      {"measurement": "carcinogen call", "setting": "Species: MOUSE, Strain/Sex: B6C3F1/FEMALE, Route: INTRAPERITONEAL, 1500 NMOL TOTAL DOSE, 1/3 AND 2/3 OF THE TOTAL DOSE ADMINISTERED AT 8 AND 15 DAYS OF AGE RESPECTIVELY, ANIMALS TERMIN", "value": "inactive; negative"},
      {"measurement": "carcinogen call", "setting": "Species: MOUSE, Strain/Sex: B6C3F1/MALE, Route: INTRAPERITONEAL, 750 NMOL TOTAL DOSE, 1/3 AND 2/3 OF THE TOTAL DOSE ADMINISTERED AT 8 AND 15 DAYS OF AGE RESPECTIVELY, ANIMALS TERMINA", "value": "inactive; negative"},
      {"measurement": "carcinogen call", "setting": "Species: MOUSE, Strain/Sex: B6C3F1/MALE, Route: INTRAPERITONEAL, 1500 NMOL TOTAL DOSE, 1/3 AND 2/3 OF THE TOTAL DOSE ADMINISTERED AT 8 AND 15 DAYS OF AGE RESPECTIVELY, ANIMALS TERMIN", "value": "inactive; negative"},
      {"measurement": "carcinogen call", "setting": "Species: MOUSE, Strain/Sex: CD-1/FEMALE, Route: INTRAPERITONEAL, 50, 100, 200 NMOL/MOUSE (TOTAL DOSE) ADMINISTERED IN 3 DOSES ON DAY 1, 8 AND 15 OF STUDY (STUDY DURATION: 6 WK), 50, 100, 200 NMOL/MOUSE (TOTAL DOSE) ADMINISTERED IN 3 DOSES ON DAY 1, 8 AND 15 OF STUDY (STUDY DURATION: 6 WK)", "value": "inactive; negative"},
      {"measurement": "carcinogen call", "setting": "Species: MOUSE, Strain/Sex: CD-1/MALE, Route: INTRAPERITONEAL, 50, 100, 200 NMOL/MOUSE (TOTAL DOSE) ADMINISTERED IN 3 DOSES ON DAY 1, 8 AND 15 OF STUDY (STUDY DURATION: 6 WK), 50, 100, 200 NMOL/MOUSE (TOTAL DOSE) ADMINISTERED IN 3 DOSES ON DAY 1, 8 AND 15 OF STUDY (STUDY DURATION: 6 WK)", "value": "inactive; negative"}
    ]},
    {"compound": "[CH3][Hg][O]C(C)=O", "values": [
      {"measurement": "carcinogen call", "setting": "Species: MOUSE, Strain/Sex: SWISS/FEMALE, Route: ORAL, 5 PPM (HG) IN DRINKING WATER FOR 70 D THEN 1 PPM (HG) FOR DURATION OF STUDY (STUDY DURATION: LIFE SPAN)", "value": "inactive; negative"},
      {"measurement": "carcinogen call", "setting": "Species: MOUSE, Strain/Sex: SWISS/MALE, Route: ORAL, 5 PPM (HG) IN DRINKING WATER FOR 70 D THEN 1 PPM (HG) FOR DURATION OF STUDY (STUDY DURATION: LIFE SPAN)", "value": "inactive; negative"}
    ]},
    {"compound": "CC(=O)C(N=Nc1ccc(-c2ccc(N=NC(C(C)=O)C(=O)Nc3ccccc3)c(Cl)c2)cc1Cl)C(=O)Nc1ccccc1", "note": "(centres undefined)", "values": [
      {"measurement": "carcinogen call", "setting": "Species: MOUSE, Strain/Sex: B6C3F1/FEMALE, Route: ORAL, 2.5, 5% OF DIET, 2.5, 5% OF DIET", "value": "inactive; negative"},
      {"measurement": "carcinogen call", "setting": "Species: MOUSE, Strain/Sex: B6C3F1/MALE, Route: ORAL, 2.5, 5% OF DIET, 2.5, 5% OF DIET", "value": "inactive; negative"},
      {"measurement": "carcinogen call", "setting": "Species: RAT, Strain/Sex: F344/FEMALE, Route: ORAL, 2.5, 5% OF DIET, 2.5, 5% OF DIET", "value": "inactive; negative"},
      {"measurement": "carcinogen call", "setting": "Species: RAT, Strain/Sex: F344/MALE, Route: ORAL, 2.5, 5% OF DIET, 2.5, 5% OF DIET", "value": "inactive; negative"}
    ]},
    {"compound": "O=C(O)[C@H]1O[C@@H](N(O)c2ccc3c(c2)Cc2ccccc2-3)[C@H](O)[C@@H](O)[C@@H]1O", "values": [
      {"measurement": "carcinogen call", "setting": "Species: RAT, Strain/Sex: F344/MALE, Route: INJECTION, 1 UMOL IN 0.5 ML OF SOLUTION CONTAINING 0.4 ML PHOSPHATE BUFFERED SALINE/ GENTAMYCIN (PH 7) AND 0.1 ML DMSO INJECTED, Tumor Site: Type of Lesion: BLADDER: CARCINOMA", "value": "active; positive"}
    ]},
    {"compound": "C=CC(=C)CCC=C(C)C", "values": [
      {"measurement": "carcinogen call", "setting": "Species: Mouse, Strain/Sex: B6C3F1 / Female (50/Group), Route: Oral, 0.25, 0.5, 1 g/kg in corn oil, by gavage, 5 d/wk for 104-105 wk, 0.25, 0.5, 1 g/kg in corn oil, by gavage, 5 d/wk for 104-105 wk", "value": "inactive; negative. (authors describe results as equivocal based on incidences of hepatoce"},
      {"measurement": "carcinogen call", "setting": "Species: Mouse, Strain/Sex: B6C3F1 / Male (50/Group), Route: Oral, 0.25, 0.5, 1 g/kg in corn oil, by gavage, 5 d/wk for 104-105 wk, 0.25, 0.5, 1 g/kg in corn oil, by gavage, 5 d/wk for 104-105 wk, Tumor Site: Type of Lesion: Liver: hepatocellular adenoma (26/50, 41/50, 43/50), hepatocellular carcinoma (14/50, 20/50, 28/50), hepatocellular aden, Tumor Site: Type of Lesion: Liver: hepatocellular adenoma (26/50, 41/50, 43/50), hepatocellular carcinoma (14/50, 20/50, 28/50), hepatocellular aden", "value": "active; positive (authors describe as clear evidence)"},
      {"measurement": "carcinogen call", "setting": "Species: Rat, Strain/Sex: F344/N / Female (50/Group), Route: Oral, 0.25, 0.5, 1 g/kg in corn oil, by gavage, 5 d/wk for 105 wk, 0.25, 0.5, 1 g/kg in corn oil, by gavage, 5 d/wk for 105 wk", "value": "inactive; negative. (authors describe findings as equivocal based on renal tubule adenoma"},
      {"measurement": "carcinogen call", "setting": "Species: Rat, Strain/Sex: F344/N / Male (50/Group), Route: Oral, 0.25, 0.5, 1 g/kg in corn oil, by gavage, 5 d/wk for 105 wk, 0.25, 0.5, 1 g/kg in corn oil, by gavage, 5 d/wk for 105 wk, Tumor Site: Type of Lesion: Kidney: renal tubule adenoma (standard evaluation - 0/50, 4/50, 8/50, standard and extended evaluations combined - 0/50", "value": "active; positive (authors describe as clear evidence)"}
    ]}
  ]
}
